The assay concerns the target T1, human bradykinin B2 receptor (hB2R) (Homo sapiens, UniProt P30411).
T1 sequence (P30411 1-391): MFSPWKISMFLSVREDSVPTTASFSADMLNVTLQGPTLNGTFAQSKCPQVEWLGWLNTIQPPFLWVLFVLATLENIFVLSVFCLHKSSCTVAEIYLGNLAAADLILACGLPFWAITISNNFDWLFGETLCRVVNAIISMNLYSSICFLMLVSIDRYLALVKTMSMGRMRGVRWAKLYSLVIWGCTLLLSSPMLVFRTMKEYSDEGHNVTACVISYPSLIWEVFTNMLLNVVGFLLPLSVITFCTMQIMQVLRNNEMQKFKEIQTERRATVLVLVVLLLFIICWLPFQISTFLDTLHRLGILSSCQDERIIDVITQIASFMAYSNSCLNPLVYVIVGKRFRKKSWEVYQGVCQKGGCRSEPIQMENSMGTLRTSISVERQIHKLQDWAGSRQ
Briefly: cell-based human bradykinin B2 receptor calcium mobilization (hB2R-CaM) assay. The conditions noted are these: HTS041C cells, bradykinin at EC80, calcium mobilization; read-out: IC50-value towards human bradykinin B2 receptor (hB2R). The text has this: The following cell-based human bradykinin B2 receptor calcium mobilization (hB2R-CaM) assay was used to determine the antagonistic activity of compounds selected from the example compounds Nos. 1 to 168 towards human bradykinin B2 receptor (hB2R). The assay is defined herein as a standard in vitro B2 receptor activity assay, which can be used to determine IC50 values of the compounds according to the present invention, e. g. the compounds shown in Examples 1-11.
The antagonistic activity of compounds according to the present invention was investigated with the hB2R-CaM assay using the B2 Bradykinin Receptor Stable Cell Line HTS041C (Eurofins, St. Charles MO) and the FLIPR Calcium 6 Assay Kit (Molecular Devices, Wokingham, UK) according to the instructions of the providers. CaM assay measurements were performed with a Flexstation 3 System (Molecular Devices) which allows the precise addition of compounds (B2R antagonists) and bradykinin (B2R agonist) to the cells and adjacent continuous recording of the time-dependent CaM assay signals.
HTS041C cells were cultured in high glucose DMEM cell culture medium (Lonza) supplemented with 10% heat-inactivated FBS (PAN Biotech), 10 mM HEPES, Penicillin/Streptomycin (200 U/mL, 200 μg/mL), 1× non-essential amino acids (Lonza), and 250 μg/mL G418 (Invivogen) in cell incubator at 37° C. in a 5% CO2 atmosphere.
One day before the CaM assay experiments cells were seeded in 200 μL DMEM cell culture medium with reduced FBS (5%) and without G418 on clear bottom black 96 well plates (ThermoFisher #165305). Cell starvation was carried out by incubation (37° C., 5% CO2) of 70.000 cells/well for 24 h to 28 h. Immediately prior calcium dye-loading the medium was carefully aspirated and cells were washed with Hank's balanced salt solution (HBSS, Gibco) containing Ca^2+, Mg^2+ and 20 mM HEPES, adjusted to pH 7.4 (HBSS+). Calcium Dye Loading of the Cells:
For calcium dye-loading one FLIPR 6 assay aliquot was dissolved in 20 mL HBSS+. 150 μL of the dye loading solution was added to cell plate and incubated for 120 min at 37° C. and 5% CO2. After dye loading the cell plate was immediately transferred to the pre-warmed (37° C.) Flexstation 3 System for CaM assaying.
Freshly prepared compound (B2 receptor antagonists) dilution series (8 pt, n=2) and bradykinin (B2 receptor agonist) solution in non-binding plates (Costar) were transferred to the Flexstation System (source plate) shortly before starting the experiment. Bradykinin was added in EC80 concentration determined in n>3 preliminary experiments with 8 pt concentration response curves (n=8)). CaM assay was executed by Flexstation 3 System starting with recording of calcium-sensitive dye fluorescence in bottom-read Flex modus with ex/em=485 nm/525 nm, cut off(em)=[…]. After 20 s, 50 μL of 4-fold concentrated compound dilutions were added to the cells resulting in a final DMSO (Sigma) concentration of 0.1% in the cell plate. CaM signals were monitored for 80 s after additions for detection of potential agonistic activities. Prior to bradykinin stimulus compound- and vehicle-treated cells were incubated for 25 min at 37° C. within the Flexstation System. Then 50 μL of a 5-fold concentrated bradykinin solution (HBSS+, 0.1% DMSO) was added to trigger CaM signals (Read out: Max-Min values) which were measured for 80 s post bradykinin stimulus.
IC50 determinations were performed by 4 parameter logistic model curve fitting of the 8 pt (n=2) compound concentration response curves using XLFIT (IDBS) software.
Relative IC50 values of the test compounds were determined with the same hB2R-CaM assay as in Example 12.
On the technique in general: A change in cytosolic calcium serves as a functional read-out for many receptors and channels.

Broadly, the IC50 is the midpoint of a concentration-inhibition curve.

As for `CC[C@@H](O)C(=O)N[C@@H](C)c1cc(F)cc(Cl)c1COc1cccc2c(-n3nccn3)cc(C)nc12` [Compound 34], the IC50 was in the range of 0.051 to 0.25 µM. To `Cc1cc(-n2nc(C)nc2C)c2cccc(OCc3c(Cl)cc(F)cc3[C@H](C)NC(=O)c3coc(C)n3)c2n1` [Compound 137] belongs 0.051 to 0.25 µM; to `Cc1cc(-n2cc(F)cn2)c2cccc(OCc3c(Cl)cc(F)cc3[C@H](C)NC(=O)C(F)F)c2n1` [Compound 146], 0.051 to 0.25 µM. The result for `Cc1cc(-n2cc(F)cn2)c2cccc(OCc3c(Cl)cc(F)cc3[C@H](C)NC(=O)C3CNC3)c2n1` [Compound 68] reads 0.051 to 0.25 µM; that for `Cc1cc(-n2cc(F)cn2)c2cccc(OCc3c(Cl)cc(F)cc3[C@H](C)NC(=O)C(C)(C)CO)c2n1` [Compound 60], not above 0.05 µM; that for `Cc1cc(-n2cc(F)cn2)c2cccc(OCc3c(Cl)cc(F)cc3[C@H](CO)NC(=O)COC(F)F)c2n1` [Compound 106], not above 0.05 µM.

For `CCc1ncnn1-c1cc(C)nc2c(OCc3c(Cl)cc(F)cc3[C@H](C)NC(=O)C(C)F)cccc12` (some centres unmarked) [Compound 172], the IC50 was not above 0.05 µM. To `[2H][C@@](C)(NC(=O)CC(F)F)c1cc(F)cc(Cl)c1COc1cccc2c(-c3ncnn3C)cc(C)nc12` [Compound 210] belongs not above 0.05 µM; to `COCCC(=O)N[C@@H](CO)c1cc(F)cc(Cl)c1COc1cccc2c(-n3cc(F)cn3)cc(C)nc12` [Compound 107], not above 0.05 µM; to `Cc1cc(-n2cc(F)cn2)c2cccc(OCc3c(Cl)cc(F)cc3[C@H](C)N(C)C(=O)C(C)(C)O)c2n1` [Compound 101], not above 0.05 µM. Take `Cc1cc(-n2cc(F)cn2)c2cccc(OCc3c(Cl)cc(F)cc3[C@H](C)NC(=O)C(CO)CO)c2n1` [Compound 71]: the IC50 was not above 0.05 µM. The result for `CC[C@H](O)C(=O)N[C@@H](C)c1cc(F)cc(Cl)c1COc1cccc2c(-n3cc(F)cn3)cc(C)nc12` [Compound 25] reads 0.051 to 0.25 µM; that for `Cc1cc(-c2ncc(C#N)n2C)c2cccc(OCc3c(Cl)cc(F)cc3[C@H](C)NC(=O)C(C)F)c2n1` (some centres unmarked) [Compound 207], not above 0.05 µM; that for `[2H][C@@](C)(NC(=O)[C@@H](C)F)c1cc(F)cc(Cl)c1COc1cccc2c(-n3ncnc3C)cc(C)nc12` [Compound 11C, (R)—N—((S)-1-deutero-1-(3-chloro-5-fluoro-2-((2-methyl-4-(5-methyl-1H-1,2,4-triazol-1-yl)quinolin-8-yloxy)methyl)phenyl)ethyl)-2-fluoropropanamide], not above 0.05 µM. The result for `Cc1cc(-n2nc(C)nc2C)c2cccc(OCc3c(Cl)cc(F)cc3[C@H](C)NC(=O)c3ccon3)c2n1` [Compound 135] reads 0.051 to 0.25 µM.

With `CC[C@H](NC(=O)COC(F)F)c1cc(F)cc(Cl)c1COc1cccc2c(-c3ncnn3C)cc(C)nc12` [Compound 131], the IC50 was not above 0.05 µM. As to `CCn1ncnc1-c1cc(C)nc2c(OCc3c(Cl)cc(F)cc3[C@H](C)NC(=O)c3coc(C)n3)cccc12` [Compound 142], the IC50 was not above 0.05 µM. The result for `Cc1cc(-n2ncnc2C)c2cccc(OCc3c(Cl)cc(F)cc3[C@H](C)NC(=O)COC(F)F)c2n1` [Compound 9, (S)—N-(1-(3-chloro-5-fluoro-2-((2-methyl-4-(5-methyl-1H-1,2,4-triazol-1-yl)quinolin-8-yloxy)methyl)phenyl)ethyl)-2-(difluoromethoxy)acetamide] reads not above 0.05 µM.

`Cc1cc(-n2cc(F)cn2)c2cccc(OCc3c(Cl)cc(F)cc3[C@H](C)NC(=O)c3cnoc3C)c2n1` [Compound 89]: the IC50 was in the range of 0.051 to 0.25 µM. Take `CC[C@H](NC(=O)C(F)F)c1cc(F)cc(Cl)c1COc1cccc2c(-c3ncnn3C)cc(C)nc12` [Compound 148]: the IC50 was not above 0.05 µM.

As for `Cc1cc(-n2cc(F)cn2)c2cccc(OCc3c(Cl)cc(F)cc3[C@H](C)NC(=O)[C@@H]3CC[C@H](C)O3)c2n1` [Compound 132], the IC50 is not above 0.05 µM.

Regarding `Cc1cc(-n2cc(F)cn2)c2cccc(OCc3c(Cl)cc(F)cc3[C@H](C)NC(=O)C(C)(C)O)c2n1` [Compound 23], the IC50 was 0.051 to 0.25 µM. To `COC(=O)[C@H](O)CC(=O)N[C@@H](C)c1cc(F)cc(Cl)c1COc1cccc2c(-n3cc(F)cn3)cc(C)nc12` [Compound 69] belongs 0.051 to 0.25 µM.

Take `Cc1cc(-n2cc(F)cn2)c2cccc(OCc3c(Cl)cc(F)cc3[C@H](C)NC(=O)c3ccncc3)c2n1` [Compound 125]: the IC50 was in the range of 0.051 to 0.25 µM.

Consider `Cc1cc(-n2ncnc2C)c2cccc(OCc3c(Cl)cc(F)cc3[C@H](C)NC(=O)[C@@H](C)O)c2n1` [Compound 97], for which the IC50 is 0.051 to 0.25 µM. The result for `Cc1cc(-c2[nH]ncc2C)c2cccc(OCc3c(Cl)cc(F)cc3[C@H](C)NC(=O)C(C)(C)O)c2n1` [Compound 189] reads not above 0.05 µM. To `CC[C@H](NC(=O)c1ccon1)c1cc(F)cc(Cl)c1COc1cccc2c(-n3cc(F)cn3)cc(C)nc12` [Compound 153] belongs 0.051 to 0.25 µM; to `Cc1cc(-n2cc(F)cn2)c2cccc(OCc3c(Cl)cc(F)cc3[C@H](C)NC(=O)c3ocnc3C)c2n1` [Compound 91], not above 0.05 µM.

On to `Cc1cc(-n2cc(F)cn2)c2cccc(OCc3c(Cl)cc(F)cc3[C@H](C)NC(=O)[C@@H](C)OC(F)F)c2n1` [Compound 93], for which the IC50 lay within 0.051 to 0.25 µM.

For the molecule `CC[C@@H](O)C(=O)N[C@@H](C)c1cc(F)cc(Cl)c1COc1cccc2c(-n3ncnc3C)cc(C)nc12` [Compound 99], the IC50 lay in the range of 0.051 to 0.25 µM. To `Cc1cc(-n2cc(F)cn2)c2cccc(OCc3c(Cl)cc(F)cc3[C@H](C)NC(=O)[C@@H](O)C(C)C)c2n1` [Compound 22] belongs 0.051 to 0.25 µM; to `Cc1cc(-n2nccn2)c2cccc(OCc3c(Cl)cc(F)cc3[C@H](C)NC(=O)C(C)(C)O)c2n1` [Compound 28], 0.051 to 0.25 µM. `Cc1cc(-n2ncnc2C)c2cccc(OCc3c(Cl)cc(F)cc3[C@H](C)NC(=O)CC(F)F)c2n1` [Compound 173]: the IC50 was not above 0.05 µM. To `Cc1cc(-n2nccn2)c2cccc(OCc3c(Cl)cc(F)cc3[C@H](C)NC(=O)[C@H]3CCOC3)c2n1` [Compound 30] belongs not above 0.05 µM; to `Cc1cc(-n2cc(F)cn2)c2cccc(OCc3c(Cl)cc(F)cc3[C@H](C)NC(=O)C3COC3)c2n1` [Compound 57], not above 0.05 µM; to `CC[C@H](O)C(=O)N[C@@H](C)c1cc(F)cc(Cl)c1COc1cccc2c(-n3nccn3)cc(C)nc12` [Compound 33], 0.051 to 0.25 µM. The result for `Cc1cc(-n2cc(F)cn2)c2cccc(OCc3c(Cl)cc(F)cc3[C@H](C)NC(=O)[C@H]3CCCO3)c2n1` [Compound 20] reads not above 0.05 µM. For the molecule `Cc1cc(-c2ccnn2C)c2cccc(OCc3c(Cl)cc(F)cc3[C@H](C)NC(=O)CO)c2n1` [Compound 194], the IC50 is not above 0.05 µM. The result for `CO[C@H](C)C(=O)N[C@@H](C)c1cc(F)cc(Cl)c1COc1cccc2c(-n3cc(F)cn3)cc(C)nc12` [Compound 17] reads not above 0.05 µM; that for `Cc1cc(-c2[nH]ncc2C)c2cccc(OCc3c(Cl)cc(F)cc3[C@H](C)NC(=O)C(F)F)c2n1` [Compound 186], 0.051 to 0.25 µM; that for `Cc1cc(-n2cc(F)cn2)c2cccc(OCc3c(Cl)cc(F)cc3[C@H](C)NC(=O)[C@@H]3CCOC3)c2n1` [Compound 19], not above 0.05 µM.

The record behind these values is patent US11820756B2, “Bradykinin B2 receptor antagonists” (Pharvaris Netherlands B.V., priority 2017, dated 2023).
